Reference: patent US11472803B2, “7-substituted 1-aryl-naphthyridine-3-carboxylic acid amides and use thereof” (Bayer Aktiengesellschaft, priority 2016, dated 2022)

How the values were obtained:
[1] = target: T1, human M2 receptor (Homo sapiens, UniProt P08172); test: Functional M2-GIRK1/4 activation test: allosteric potency (EC50) and efficiency at EC20 acetylcholine; assay type: cell-based; details: CHO-DUKX-M2-GIRK cells; for EC50: voltage-sensitive dye, acetylcholine at EC20, in some cases mean of two or more determinations; for Emax: boosting of the acetylcholine effect at EC20 acetylcholine concentration
T1 construct: expressed in transfected cells; host or cells: CHO-DUKX (CHO-DUKX-M2-GIRK)
T1 sequence (P08172 1-466): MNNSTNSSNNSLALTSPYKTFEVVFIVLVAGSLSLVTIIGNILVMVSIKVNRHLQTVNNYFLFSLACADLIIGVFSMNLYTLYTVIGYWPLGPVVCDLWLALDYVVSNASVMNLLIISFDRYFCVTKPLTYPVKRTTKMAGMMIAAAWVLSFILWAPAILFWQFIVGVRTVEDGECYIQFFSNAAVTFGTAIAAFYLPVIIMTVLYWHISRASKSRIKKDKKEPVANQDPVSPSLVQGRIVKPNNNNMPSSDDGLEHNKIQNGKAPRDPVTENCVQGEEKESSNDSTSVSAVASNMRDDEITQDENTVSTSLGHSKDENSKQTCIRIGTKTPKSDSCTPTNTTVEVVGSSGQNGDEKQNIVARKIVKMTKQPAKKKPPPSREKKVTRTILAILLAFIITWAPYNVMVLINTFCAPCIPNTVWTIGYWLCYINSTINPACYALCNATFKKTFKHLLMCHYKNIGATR
Procedure, shortened: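 Positive allosteric modulation measured as boosting of an EC20 acetylcholine response: hyperpolarization via GIRK1/4 in CHO-DUKX-M2-GIRK cells, monitored by membrane-potential dye fluorescence over 60 s after agonist, compound preadded. Hill-function fit gives EC50 and efficiency.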

[2] = target: T1, human M2 receptor; test: Functional M2-GIRK1/4 activation test: positive cooperativity (α factor), shift of acetylcholine dose-response curve; assay type: cell-based; details: Allosteric EC50 shift of acetylcholine 8-point dose-response curve; CHO-DUKX-M2-GIRK cells; α>1 = positive cooperativity
Excerpt: The binding of orthosteric agonists (endogenous ligand: acetylcholine) to the M2 receptor leads to receptor activation or a change in conformation of the receptor in the manner of a shift in equilibrium in favour of the active receptor conformation.
The agonist-induced change in conformation of the M2 receptor results in a Gαi protein activation. […] Under physiological conditions, the result is then a selective efflux of potassium from the cell along the electrochemical gradient. […] The extent of hyperpolarization can therefore be regarded as a measure of the activation of the M2 receptor.
The test cell used is a recombinant CHO-DUKX cell line which has been stably transfected with cDNA coding for the human M2 receptor and with cDNA coding for both GIRK1/4 subunits (CHO-DUKX-M2-GIRK). The transmembrane potential, or the relative changes in the transmembrane potential as a function of substance addition or M2 activation, is determined by means of a voltage-sensitive dye (FLIPR Membrane Potential Assay Kit Blue, Molecular Devices #R8034) and the measurement of cell fluorescence using a proprietary fluorescence imaging instrument.
In accordance with the desired test concentrations, the substances were pre-diluted in loading buffer (see above).
The sowing medium consisted of MEM alpha medium (supplemented with 5% PCS, 2% Glutamax, no genticin).
For the particular measurement, the medium was removed and the cells were laden with the volt-age-sensitive dye for at least 6 min at room temperature (30 μl of loading buffer per 384-well). This was followed, in a first measurement, by the determination of the resting transmembrane potential for a period of 5 sec in 1 sec increments. Thereafter, 10 μl in each case of the test substances diluted in loading buffer are added, followed by a second measurement to determine the transmembrane potential for a period of 50 sec in 1 sec increments.
Finally, the cells are admixed with 10 μl of agonist solution (acetylcholine dissolved in loading buffer). In contrast to the EC50 determination of the test substances (see B-1.1), however, this is not done using one acetylcholine concentration; instead, every concentration of the test substance is combined with an acetylcholine 8-point dose-response curve. […] The M2-mediated GIRK1/4 activation or hyperpolarization is then monitored in a third measurement over a period of 60 sec in 1 sec increments. The shift in the acetylcholine dose-response curve in the presence of increasing concentrations of the test substance is analysed and quantified by means of GraphPad PRISM (Allosteric EC50 shift). […] Positive cooperativity is the hallmark of a positive allosteric modulator. […] The greater the magnitude of the α value, the greater the extent of cooperativity between orthosteric and allosteric.

Structure (SMILES) | EC50 [1] | Emax [1] | Cooperativity (alpha factor) [2]
CC(C)C[C@@H](NC(=O)c1cn(-c2c(F)cc(F)cc2F)c2nc(N3C[C@@H](O)[C@H](O)C3)c(F)cc2c1=O)C(F)(F)F [Example 14, 7-[(3R,45)-3,4-dihydroxypyrrolidin-1-yl]-6-fluoro-4-oxo-N-[(2R)-1,1,1-trifluoro-4-methylpentan-2-yl]-1-(2,4,6-trifluorophenyl)-1,4-dihydro-1,8-naphthyridine-3-carboxamide] | 5.5 nM | 100% | 49
CC(C)[C@@H](C)NC(=O)c1cn(-c2c(F)cc(F)cc2F)c2nc(N3C[C@@H](O)[C@H](O)C3)c(F)cc2c1=O [Example 15, 7-[(3R,4R)-3,4-dihydroxypyrrolidin-1-yl]-6-fluoro-N-[(2R)-3-methylbutan-2-yl]-4-oxo-1-(2,4,6-trifluorophenyl)-1,4-dihydro-1,8-naphthyridine-3-carboxamide] | 9.15 nM | 96% | 41
C[C@H](NC(=O)c1cn(-c2c(F)cc(F)cc2F)c2nc(N3C[C@@H](O)[C@H](O)C3)c(F)cc2c1=O)C(F)(F)F [Example 18, 7-[(3R,4R)-3,4-dihydroxypyrrolidin-1-yl]-6-fluoro-4-oxo-1-(2,4,6-trifluorophenyl)-N-[(2S)-1,1,1-trifluoropropan-2-yl]-1,4-dihydro-1,8-naphthyridine-3-carboxamide] | 20.5 nM | 99% | 43
CC(C)C(NC(=O)c1cn(-c2c(F)cc(F)cc2F)c2nc(N3C[C@@H](O)[C@H](O)C3)c(F)cc2c1=O)C(C)C [Example 24, 7-[(3R,4R)-3,4-dihydroxypyrrolidin-1-yl]-N-(2,4-dimethylpentan-3-yl)-6-fluoro-4-oxo-1-(2,4,6-trifluorophenyl)-1,4-dihydro-1,8-naphthyridine-3-carboxamide] | 1.35 nM | 100% | 57
CC[C@@H](NC(=O)c1cn(-c2c(F)cc(F)cc2F)c2nc(N3C[C@@H](O)[C@H](O)C3)c(F)cc2c1=O)C(F)(F)F [Example 36, 7-[(3R,4R)-3,4-dihydroxypyrrolidin-1-yl]-6-fluoro-4-oxo-N-[(2R)-1,1,1-trifluorobutan-2-yl]-1-(2,4,6-trifluorophenyl)-1,4-dihydro-1,8-naphthyridine-3-carboxamide] | 5 nM | 92% | 51
O=C(N[C@@H](C1CC1)C(F)(F)F)c1cn(-c2c(F)cc(F)cc2F)c2nc(N3C[C@@H](O)[C@H](O)C3)c(Cl)cc2c1=O [Example 37, 6-chloro-N-[(1S)-1-cyclopropyl-2,2,2-trifluoroethyl]-7-[(3R,4R)-3,4-dihydroxypyrrolidin-1-yl]-4-oxo-1-(2,4,6-trifluorophenyl)-1,4-dihydro-1,8-naphthyridine-3-carboxamide] | 6 nM | 100% | 38
CC(C)(NC(=O)c1cn(-c2c(F)cc(F)cc2Cl)c2nc(N3C[C@@H](O)[C@H](O)C3)c(F)cc2c1=O)C(F)(F)F [Example 41, 1-(2-chloro-4,6-difluorophenyl)-7-[(3R,4R)-3,4-dihydroxypyrrolidin-1-yl]-6-fluoro-4-oxo-N-(1,1,1-trifluoro-2-methylpropan-2-yl)-1,4-dihydro-1,8-naphthyridine-3-carboxamide] | 3.3 nM | 100% | 37
CC1(O)CN(c2nc3c(cc2F)c(=O)c(C(=O)N[C@@H](C2CC2)C(F)(F)F)cn3-c2c(F)cc(F)cc2F)C1 [Example 53, N-[(1S)-1-Cyclopropyl-2,2,2-trifluoroethyl]-6-fluoro-7-(3-hydroxy-3-methylazetidin-1-yl)-4-oxo-1-(2,4,6-trifluorophenyl)-1,4-dihydro-1,8-naphthyridine-3-carboxamide] | 16 nM | 100% | 30
O=C(N[C@@H](C1CC1)C(F)(F)F)c1cn(-c2c(F)cc(F)cc2F)c2nc(N3CC(O)C3)c(F)cc2c1=O [Example 54, N-[(1S)-1-Cyclopropyl-2,2,2-trifluoroethyl]-6-fluoro-7-(3-hydroxyazetidin-1-yl)-4-oxo-1-(2,4,6-trifluorophenyl)-1,4-dihydro-1,8-naphthyridine-3-carboxamide] | 25 nM | 100% | 30

Results, then the compound that gave them:

EC50 [1] | Emax [1] | Cooperativity (alpha factor) [2] | Structure (SMILES)
20 nM | 90% | 40 | O=C(NC12CC(C1)C2)c1cn(-c2c(F)cc(F)cc2F)c2nc(N3C[C@@H](O)[C@H](O)C3)c(F)cc2c1=O [Example 12, N-(bicyclo[1.1.1]pent-1-yl)-7-[(3R,4R)-3,4-dihydroxypyrrolidin-1-yl]-6-fluoro-4-oxo-1-(2,4,6-trifluorophenyl)-1,4-dihydro-1,8-naphthyridine-3-carboxamide]
6.2 nM | 94% | 49 | CC(C)(CC(F)(F)F)NC(=O)c1cn(-c2c(F)cc(F)cc2F)c2nc(N3C[C@@H](O)[C@H](O)C3)c(F)cc2c1=O [Example 13, 7-[(3R,4R)-3,4-dihydroxypyrrolidin-1-yl]-6-fluoro-4-oxo-N-(4,4,4-trifluoro-2-methylbutan-2-yl)-1-(2,4,6-trifluorophenyl)-1,4-dihydro-1,8-naphthyridine-3-carboxamide]
8.45 nM | 99% | 42 | CC(C)[C@H](C)NC(=O)c1cn(-c2c(F)cc(F)cc2F)c2nc(N3C[C@@H](O)[C@H](O)C3)c(F)cc2c1=O [Example 16, 7-[(3R,4R)-3,4-dihydroxypyrrolidin-1-yl]-6-fluoro-N-[(2S)-3-methylbutan-2-yl]-4-oxo-1-(2,4,6-trifluorophenyl)-1,4-dihydro-1,8-naphthyridine-3-carboxamide]
10 nM | 95% | 42 | CC(C)(NC(=O)c1cn(-c2c(F)cc(F)cc2F)c2nc(N3C[C@@H](O)[C@H](O)C3)c(F)cc2c1=O)C(F)F [Example 22, N-(1,1-difluoro-2-methylpropan-2-yl)-7-[(3R,4R)-3,4-dihydroxypyrrolidin-1-yl]-6-fluoro-4-oxo-1-(2,4,6-trifluorophenyl)-1,4-dihydro-1,8-naphthyridine-3-carboxamide]
5.5 nM | 100% | 41 | CC(C)(NC(=O)c1cn(-c2c(F)cc(F)cc2F)c2nc(N3C[C@@H](O)[C@H](O)C3)c(F)cc2c1=O)C(F)(F)F [Example 23, 7-[(3R,4R)-3,4-dihydroxypyrrolidin-1-yl]-6-fluoro-4-oxo-N-(1,1,1-trifluoro-2-methylpropan-2-yl)-1-(2,4,6-trifluorophenyl)-1,4-dihydro-1,8-naphthyridine-3-carboxamide]
4.05 nM | 95% | 45 | CC(C)(NC(=O)c1cn(-c2c(F)cc(F)cc2F)c2nc(N3C[C@@H](O)[C@H](O)C3)c(F)cc2c1=O)C1CC1 [Example 25, N-(2-cyclopropylpropan-2-yl)-7-[(3R,4R)-3,4-dihydroxypyrrolidin-1-yl]-6-fluoro-4-oxo-1-(2,4,6-trifluorophenyl)-1,4-dihydro-1,8-naphthyridine-3-carboxamide]
